# From US9925206B2, “Compositions and methods for treating bacterial infection” (priority 2015, dated 2018)
# Like-named read-outs stand apart in the source and are kept apart here.
# Assays:
# P. aeruginosa = experiment: Checkerboard assay of EDTA and antibiotics with and without acidified nitrite background; format: cell-based, Pseudomonas aeruginosa
# Experimental: The antibiotic agents used in these studies included Tobramycin, Azithromycin, Colistin, Ticarcillin, Ciprofloxacin, Sulfametoxazole, Sulfamethazine, Tetracycline, Vancomycin, Imipenem, and Cefepime. […] Aerobic samples are incubated for 24 or 48 hours, and anaerobic samples are incubated for 48 hours.
# PA strain PAO1 = experiment: Optical density growth/viability of PAO1 with A-NO2-, EDTA and/or tobramycin; format: cell-based, Pseudomonas aeruginosa; conditions: for growth of PAO1: 15 mM A-NO2- or 1 mM EDTA and 2 μg/ml TOBI
# Experimental: FIG. 2 represent optical density measurements with control (untreated) bacteria arbitrarily set to 1.0 after 24 and 48 hr of growth at 37° C. in a standard rich medium known Luria broth (LB). Another experiment included the powerful aminoglycoside antibiotic, tobramycin (TOBI), that is commonly used for the treatment of PA CF/COPD lung infections (Moreau-Marquis S, et al. 2009. Am J Respir Cell Mol Biol 41:305-313; Dal Negro R, et al. 2008. Adv Ther 25:1019-1030). Nitrite was used at 25 mM (aerobic) or 15 mM (anaerobic); EDTA, 1.0 mM; TOBI, 2 μg/ml. Anaerobic LB was supplemented with 0.1 M potassium phosphate, pH 6.5 and 100 mM KNO3 as a terminal electron acceptor for anaerobic growth.
# P. aeruginosa (PAO1) = conditions: 10 mM EDTA; 30 mM NaNO2; 10 mM EDTA-10 mM NaNO2
# Experimental: BALB/c mice (8 per group) were infected with 1.7×10^6 P. aeruginosa (PAO1) in 1 mg/ml alginate.
# The infected mice (n=8) were treated with either (i) 10 mM PBS, pH 6.5, (ii) 10 mM EDTA in PBS, pH 6.5, (iii) 30 mM NaNO2 in PBS, pH 6.5, or (iv) 10 mM EDTA-10 mM NaNO2 in PBS, pH 6.5. Agents were administered as inhaled therapies beginning at 12 hours post-inoculation and continued once daily.
# P. aeruginosa biofilm = conditions: acidified nitrite 15, 25, 35 mM and EDTA 1, 5, 10 mM alone, aerobic and anaerobic, 24 hours treatment
# Experimental: In order to determine the efficacy of the combination treatment for biofilm elimination, we employed a Crystal Violet assay. This allows us to determine the total biomass of the biofilm.
# Crystal Violet stains biofilm mass which is a quantitative measure of biofilm density/thickness, but not necessarily viability (live/dead) of the biomass.
# Cultures are grown for 24 hours aerobically or anaerobically, and then treated for 24 hours before assay.
# P. aeruginosa was allowed to adhere to 96 well polystyrene 96 well microplates at incubate at 37° C. under aerobic vs. anaerobic conditions. The biofilms were washed with PBS and stained with 1% crystal violet (CV) for 15 minutes at room temperature. The CV was removed and the stained bacteria washed an additional 3 times prior to solubilization of the CV with 95% ethanol. The absorbance at 590 nm was monitored using a microplate reader.
# [1] = cited from earlier work
# PA = conditions: EDTA alone; cited from earlier work
# [2] = system: non-mucoid strains, PAO1 and FRD1/pmucA; conditions: 15 mM A-NO2-, pH 6.5, anaerobic, 4 day incubation; cited from earlier work
# anaerobic FRD1 biofilms = conditions: 15 mM NO2-, cited from earlier work
# FRD1 = conditions: mucA mutant FRD1; cited from earlier work
# non-mucoid FRD1/pmucA = conditions: cited from earlier work
# mucoid FRD1 = conditions: cited from earlier work
# mucoid PA CF strain FRD1 = conditions: 15 mM A-NO2-, pH 6.5, anaerobic; cited from earlier work
# [3] = system: mucoid FRD1 and non-mucoid FRD1/pmucA; conditions: anaerobic 15 mM NO2-, pH 6.5, after 5 days, cited from earlier work
# FRD1/pmucA = conditions: mucA complemented strain, pH values between 6.0 and 7.5; cited from earlier work
molecule,measurement,setting,value
CC[C@H]1OC(=O)[C@H](C)[C@@H](O[C@H]2C[C@@](C)(OC)[C@@H](O)[C@H](C)O2)[C@H](C)[C@@H](O[C@@H]2O[C@H](C)C[C@H](N(C)C)[C@H]2O)[C@](C)(O)C[C@@H](C)CN(C)[C@H](C)[C@@H](O)[C@]1(C)O [Azithromycin],bactericidal activity of the antibiotic when combined with NaNO2 and EDTA,P. aeruginosa,synergistically increases the bactericidal activity
same,result in combination with EDTA/NO2-,P. aeruginosa; compared with the other antibiotic agents,best results so far in combination
"O=C(O)CN(CCN(CC(=O)O)CC(=O)O)CC(=O)O [EDTA, ethylene diamine tetraacetic acid, reference compound]",growth of PAO1,PA strain PAO1,initially impaired
same,MICs of EDTA upon addition of acidified nitrite,P. aeruginosa; nitrite background 7.5 mM,decreased
same,average CFU/lung relative to control (PBS),P. aeruginosa (PAO1),reduced
same,biomass density/thickness of biofilm,P. aeruginosa biofilm,reduction of biomass density/thickness
same,toxicity in humans,[1]; in vivo,minimal toxicity
same,clinical course or airway microbial flora,PA,not modify the clinical course or the airway microbial flora
"NC[C@H]1O[C@H](O[C@H]2[C@H](O)[C@@H](O[C@H]3O[C@H](CO)[C@@H](O)[C@H](N)[C@H]3O)[C@H](N)C[C@@H]2N)[C@H](N)C[C@@H]1O [TOBI, tobramycin]",growth of PAO1,PA strain PAO1,initially impaired
same,killing PA,"PA strain PAO1; anaerobic conditions, TOBI 2 μg/ml",not effective
same,bactericidal activity of the antibiotic when combined with NaNO2 and EDTA,P. aeruginosa,synergistically increases the bactericidal activity
acidified nitrite [A-NO2^−],viability of non-mucoid strains,[2],remained viable
same,death of biofilm bacteria,"anaerobic FRD1 biofilms; pH 6.5, 2 days",nearly complete death of biofilm bacteria
same,biofilm structure and cell viability relative to control biofilms,"anaerobic FRD1 biofilms; pH 7.5, 2 days",no difference in biofilm structure and cell viability
same,growth of PAO1,PA strain PAO1,initially impaired
same,killing as a function of pH,FRD1,more effectively at lower pH
same,competitive index,"non-mucoid FRD1/pmucA; complemented strain FRD1/pmucA, CD1 mouse airways, 6 days",~1.0
same,decrease of bacteria in mouse lungs,non-mucoid FRD1/pmucA; pH 6.5 and pH 5.5,not
same,bacteria in mouse lungs after long-term treatment,mucoid FRD1; 15 mM NO2- daily for 16 days,no bacteria detected
same,competitive index,"mucoid FRD1; FRD1, 10^6 intratracheally instilled into CD1 mouse airways, 6 days",~0.2
same,decrease of bacteria in mouse lungs,"mucoid FRD1; pH 5.5, daily treatment",> 3 logs
same,decrease of bacteria in mouse lungs,"mucoid FRD1; pH 6.5, daily treatment",> 2 logs
same,rate of killing of mucoid FRD1,mucoid PA CF strain FRD1,~90 % per day
same,CFU of mucoid FRD1 in mixed culture,[3]; three bacterial ratios,< 10^3 CFU/ml
same,viability of mucoid FRD1 in mixed culture,[3],lost viability
same,viability of non-mucoid FRD1/pmucA in mixed culture,[3],maintained viability
same,average CFU/lung relative to control (PBS),P. aeruginosa (PAO1),reduced
same,killing as a function of pH,FRD1/pmucA,little or no killing
same,biomass density/thickness of biofilm,P. aeruginosa biofilm,reduction of biomass density/thickness
same,toxicity in humans,[1]; each agent separately,minimal toxicity
